Test results taken from patent US20130165475A1, “DEUTERIUM-ENRICHED HETEROCYCLIC COMPOUNDS AS KINASE INHIBITORS” (ASCEPION PHARMACEUTICALS, INC., priority 2010, published 2013).
Where a name gives a salt, the structure may show the parent alone.

Columns and labels:
Mouse liver microsome = experiment: Liver microsomal stability assay, mouse; format: in vitro ADME; set-up: key: A: the percentage of a compound remains is greater than that of its deuterium non-enriched counterpart; B: a result otherwise; settings: 40 μM, 37° C., 30 min, 1 mg/ml microsome proteins; class relative to deuterium non-enriched counterpart
Description: A standard liver microsomal stability assay can be used to test or screen the compounds of this invention and to identify compounds with enhanced metabolic stability due to the enrichment of deuterium in the compounds. Liver microsome proteins prepared from different species such as mouse and rat were obtained from a commercial source (Research Institute for Liver Diseases, Shanghai, China). The assay was conducted in 1.5% potassium hydrogenphosphate (K2HPO4) in the presence of liver microsome proteins at 1 mg/ml and supplemented with an […] (3.3 mM NADPH, 3.3 mM glucose-6-phosphate, 6 units/ml G6PDase, and 3.3 mM magnesium chloride). Test compound was added into the assay mixture to a final concentration of 40 μM and incubated at 37° C. for 0 or 30 minutes. The reaction was stopped by the addition of 20 μM Bifonazole/CAN. Samples were then centrifuged at 14000 rpm for 10 minutes to precipitate proteins. Supernatant were then transferred to microcentrifuge tubes and subject to reverse phase HPLC analysis to determine the concentration of test compound.
The percentage of compounds that remained in the assay reactions after a thirty-minute incubation at 37° C. is calculated as the ratio between the amount of compound remained after a thirty-minute and that after a zero-minute incubation.

c-Met = target: T1, c-Met (Homo sapiens, UniProt P08581); experiment: c-Met cell-based assay (ELISA, phosphor-/total c-Met in transfected CHO cells, HGF stimulated); settings: compound at 100 nM; CHO cells transfected with full length c-Met; HGF 100 ng/mL
T1 construct: expressed in transfected cells; host or cells: CHO cells
T1 sequence (P08581 25-1390): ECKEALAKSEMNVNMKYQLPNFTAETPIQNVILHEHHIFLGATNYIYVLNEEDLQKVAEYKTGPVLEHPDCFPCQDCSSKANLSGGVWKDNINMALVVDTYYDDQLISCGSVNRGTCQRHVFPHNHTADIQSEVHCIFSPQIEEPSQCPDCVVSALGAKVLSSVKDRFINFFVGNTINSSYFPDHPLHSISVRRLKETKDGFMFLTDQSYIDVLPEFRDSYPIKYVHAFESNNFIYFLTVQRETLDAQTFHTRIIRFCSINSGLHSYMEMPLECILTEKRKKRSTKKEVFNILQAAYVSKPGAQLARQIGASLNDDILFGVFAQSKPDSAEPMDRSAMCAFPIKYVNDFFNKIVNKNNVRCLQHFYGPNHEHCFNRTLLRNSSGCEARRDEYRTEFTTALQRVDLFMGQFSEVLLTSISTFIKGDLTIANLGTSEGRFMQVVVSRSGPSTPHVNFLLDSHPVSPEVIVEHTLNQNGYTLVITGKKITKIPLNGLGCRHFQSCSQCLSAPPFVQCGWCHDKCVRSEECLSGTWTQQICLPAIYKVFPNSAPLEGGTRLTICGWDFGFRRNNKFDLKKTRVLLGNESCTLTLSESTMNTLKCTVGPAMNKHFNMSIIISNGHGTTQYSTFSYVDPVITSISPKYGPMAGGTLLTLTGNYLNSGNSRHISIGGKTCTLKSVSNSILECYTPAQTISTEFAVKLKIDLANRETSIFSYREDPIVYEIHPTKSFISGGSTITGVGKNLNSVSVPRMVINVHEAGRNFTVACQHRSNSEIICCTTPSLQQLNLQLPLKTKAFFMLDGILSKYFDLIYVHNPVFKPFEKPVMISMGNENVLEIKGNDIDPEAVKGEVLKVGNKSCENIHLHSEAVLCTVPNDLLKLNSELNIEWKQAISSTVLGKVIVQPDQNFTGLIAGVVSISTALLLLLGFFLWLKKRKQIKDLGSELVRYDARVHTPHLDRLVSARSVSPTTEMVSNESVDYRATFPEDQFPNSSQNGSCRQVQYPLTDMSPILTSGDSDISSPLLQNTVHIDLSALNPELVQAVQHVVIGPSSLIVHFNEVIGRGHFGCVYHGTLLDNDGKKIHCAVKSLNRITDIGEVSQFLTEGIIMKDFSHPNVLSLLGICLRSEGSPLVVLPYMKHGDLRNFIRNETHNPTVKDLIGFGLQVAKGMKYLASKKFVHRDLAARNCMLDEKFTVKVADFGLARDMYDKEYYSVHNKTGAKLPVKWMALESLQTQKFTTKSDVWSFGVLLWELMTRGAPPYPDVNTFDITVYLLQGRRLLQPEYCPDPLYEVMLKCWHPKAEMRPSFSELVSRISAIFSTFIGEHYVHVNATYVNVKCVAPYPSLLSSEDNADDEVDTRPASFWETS
Text: A standard cell-based assay for c-Met kinase activity can be used to test or screen the compounds of this invention and to identify c-Met antagonists. In this example, ELISA kits (R&D Systems, Inc., Minneapolis, Minn. 55413, USA) were used.
The activity of c-Met in cells depended on its autophosphorylation level by it specific growth factor-Hepatocyte growth factor (HGF). In order to induce the cell to produce c-Met, full length of c-Met sequence was cloned into PC-DNA3.1 vector, the plasmid was then transfected into CHO cells. After 48 hours, the expression of c-Met in transfected CHO cells was confirmed by regular western blotting.
A compound to be tested was first dissolved in DMSO to a concentration of 10 mM and stored at −20° C. One day before the screening, CHO cells transfected with full length c-Met plasmid were grown in DMEM medium without the presence of serum. On the day of screening procedure, the compounds with various concentration in DMSO (from 0.5 nM to 500 nM) were added into DMEM medium, two hours later, Hepatocyte growth factor (HGF) was added into the medium at the concentration of 100 ng/mL to stimulate the production of phosphor-c-Met. Cell lysate from approximately 5×10^5 transfected CHO cells were reacted with anti-phosphor c-Met or anti-total c-Met antibody in 96 well plates, in the presence of detection antibody. The phosphor-c-Met or total c-Met were detected with Streptavidin-HRP (R&D Systems), followed by chemiluminescent detection. The level of c-Met kinase activity was quantified as the ratio between the amount of phosphor- and that of total c-Met proteins.

EphB4 = target: T2, EphB4 (Homo sapiens, UniProt P54760); experiment: EphB4 cell-based assay (quantitative Western blotting, PC-3 cells, Ephrin-B2 stimulated); settings: compound at 100 nM; PC-3 human prostate cancer cells; Ephrin-B2 stimulation; read-out: % EphB4 kinase activity remains
T2 construct: EphB4 autophosphorylation in PC-3 human prostate cancer cells; host or cells: PC-3 human prostate cancer cells
T2 sequence (P54760 16-987): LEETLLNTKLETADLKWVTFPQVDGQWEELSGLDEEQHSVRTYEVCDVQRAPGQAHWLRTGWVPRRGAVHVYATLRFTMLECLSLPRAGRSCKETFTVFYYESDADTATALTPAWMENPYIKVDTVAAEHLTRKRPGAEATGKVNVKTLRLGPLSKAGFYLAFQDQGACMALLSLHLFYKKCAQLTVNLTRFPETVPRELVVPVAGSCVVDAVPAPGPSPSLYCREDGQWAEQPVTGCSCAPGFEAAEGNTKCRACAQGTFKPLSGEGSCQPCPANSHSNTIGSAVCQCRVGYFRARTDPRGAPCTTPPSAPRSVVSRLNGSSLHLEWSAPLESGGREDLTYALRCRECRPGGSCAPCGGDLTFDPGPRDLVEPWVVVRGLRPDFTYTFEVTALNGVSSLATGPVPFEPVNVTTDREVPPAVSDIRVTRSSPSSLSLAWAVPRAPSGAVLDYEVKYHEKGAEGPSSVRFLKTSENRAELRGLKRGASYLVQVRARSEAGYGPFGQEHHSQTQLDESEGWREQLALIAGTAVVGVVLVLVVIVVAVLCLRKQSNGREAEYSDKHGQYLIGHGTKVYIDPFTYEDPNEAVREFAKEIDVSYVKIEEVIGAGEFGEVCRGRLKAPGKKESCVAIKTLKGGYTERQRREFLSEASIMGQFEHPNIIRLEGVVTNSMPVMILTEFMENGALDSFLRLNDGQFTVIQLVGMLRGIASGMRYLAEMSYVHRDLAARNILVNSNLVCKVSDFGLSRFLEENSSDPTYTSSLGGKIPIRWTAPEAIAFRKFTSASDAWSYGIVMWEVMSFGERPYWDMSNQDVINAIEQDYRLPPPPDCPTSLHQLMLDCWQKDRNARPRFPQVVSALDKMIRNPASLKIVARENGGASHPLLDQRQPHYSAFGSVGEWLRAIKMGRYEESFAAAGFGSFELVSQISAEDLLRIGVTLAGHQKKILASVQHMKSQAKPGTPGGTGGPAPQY
Text: A standard image-based quantitative Western blotting assay for EphB4 kinase activity can be used to test or screen the compounds of this invention and to identify EphB4 antagonists.
The kinase activity of EphB4 in cells depends on its autophosphorylation level stimulated by the binding to its ligand Ephrin-B2. High level of EphB4 autophosphorylation in PC-3 human prostate cancer cells (ATCC, USA) induced by the application of Ephrin-B2 to the cell culture can be observed by regular Western blotting assay.
A compound to be tested was first dissolved in DMSO to a concentration of 10 mM and stored at −20° C. On the day of screening procedure, the compound in DMSO was added into DMEM medium to a final concentration of 100 nM. Two hours later, Ephrin-B2 ([…]) was added into DMEM medium to stimulate the production of phosphor-EphB4. The phosphor-EphB4 was detected based on its molecular weight and with anti-phosphor protein antibody PY-20 in cell lysate from approximately 5×10^5 PC-3 cells by Western blotting followed by imaging quantification. The relative level of EphB4 kinase activity was quantified as the ratio between the amount of phosphor-EphB4 and that of total Actin proteins.

Compound | % of compound remained at the 30th minutes, Mouse liver microsome (Mouse liver microsome) | % C-Met kinase activity remains (c-Met) | remaining activity at 0.1 µM (EphB4)
[2H]C([2H])([2H])Oc1ccc(Cl)cc1NC(=O)Nc1cccc2c1ccn2Cc1ccnc(N)c1 [Example 6, 1-[1-[(2-amino-4-pyridyl)methyl]indol-4-yl]-3-[5-chloro-2-(trideuteriomethoxy)phenyl]urea] | B | A (the percentage of kinase activity remains is below 70%) | < 70%
[2H]C(c1c[nH]c2ncccc12)n1ccc2c(NC(=O)Nc3cc(Cl)ccc3OC)cccc21 (stereo not drawn) [Example 18, 1-(5-chloro-2-methoxyphenyl)-3-[1-[deuterio(1H-pyrrolo[2,3-b]pyridin-3-yl)methyl]indol-4-yl]urea] | A | A (the percentage of kinase activity remains is below 70%) | < 70%
Cl.[2H]C([2H])(c1ccnc(N)c1)n1ccc2c(NC(=O)Nc3cc(Cl)ccc3OC)cccc21 [Example 2, 1-[1-[(2-amino-4-pyridyl)-dideuteriomethyl]indol-4-yl]-3-(5-chloro-2-methoxyphenyl)urea hydrochloride] | A | B (the percentage is greater or equal to 70%) | < 70%
[2H]C([2H])(c1ccnc2[nH]ccc12)N1CCc2c(NC(=O)Nc3cc(Cl)ccc3OC)cccc21 [Example 9, 1-(5-Chloro-2-methoxyphenyl)-3-[1-[dideuterio(1H-pyrrolo[2,3-b]pyridin-4-yl)methyl]indolin-4-yl]urea hydrochloride] | A | A (the percentage of kinase activity remains is below 70%) | ≥ 70%
[2H]C([2H])(c1ccnc2[nH]ccc12)n1ccc2c(NC(=O)Nc3cc(Cl)ccc3OC)cccc21 [Example 10, 1-(5-chloro-2-methoxyphenyl)-3-[1-[dideuterio(1H-pyrrolo[2,3-b]pyridin-4-yl)methyl]indol-4-yl]urea hydrochloride] | A | A (the percentage of kinase activity remains is below 70%) | ≥ 70%
[2H]C([2H])([2H])Oc1ccc(Cl)cc1NC(=O)Nc1cccc2c1CCN2C([2H])([2H])c1ccnc(N)c1 [Example 3, 1-[1-[(2-Amino-4-pyridyl)-dideuteriomethyl]indolin-4-yl]-3-[5-chloro-2-(trideuteriomethoxy)phenyl]urea] | B | A (the percentage of kinase activity remains is below 70%) | < 70%
[2H]C([2H])([2H])Oc1ccc(Cl)cc1NC(=O)Nc1cccc2c1CCN2Cc1ccnc(N)c1 [Example 5, 1-[1-[(2-Amino-4-pyridyl)methyl]indolin-4-yl]-3-[5-chloro-2-(trideuteriomethoxy)phenyl]urea] | B | A (the percentage of kinase activity remains is below 70%) | < 70%
[2H]C([2H])(c1ccnc2[nH]ccc12)N1CCc2c(NC(=O)Nc3cc(Cl)ccc3F)cccc21 [Example 11, 1-(5-Chloro-2-fluorophenyl)-3-[1-[dideuterio(1H-pyrrolo[2,3-b]pyridin-4-yl)methyl]indolin-4-yl]urea hydrochloride] | B | A (the percentage of kinase activity remains is below 70%) | < 70%
[2H]C(c1c[nH]c2ncccc12)n1ccc2c(NC(=O)Nc3cc(Cl)ccc3F)cccc21 (stereo not drawn) [Example 20, 1-(5-chloro-2-fluorophenyl)-3-[1-[deuterio(1H-pyrrolo[2,3-b]pyridin-3-yl)methyl]indol-4-yl]urea] | B | A (the percentage of kinase activity remains is below 70%) | ≥ 70%
Cl.[2H]C([2H])([2H])Oc1ccc(Cl)cc1NC(=O)Nc1cccc2c1CCN2C([2H])([2H])c1ccnc2[nH]ccc12 [Example 7, 1-[5-Chloro-2-(trideuteriomethoxy)phenyl]-3-[1-[dideuterio(1H-pyrrolo[2,3-b]pyridin-4-yl)methyl]indolin-4-yl]urea hydrochloride] | A | A (the percentage of kinase activity remains is below 70%) | ≥ 70%
[2H]C(c1c[nH]c2ncccc12)N1CCc2c(NC(=O)Nc3cc(Cl)ccc3OC)cccc21 (stereo not drawn) [Example 17, 1-(5-Chloro-2-methoxyphenyl)-3-[1-[deuterio(1H-pyrrolo[2,3-b]pyridin-3-yl)methyl]indolin-4-yl]urea] | A | A (the percentage of kinase activity remains is below 70%) | < 70%
